# In patent US4442031A, “Immunopotentiating peptides” (Hoffmann-La Roche Inc., priority 1983, dated 1984):
# Where no end group is shown, it is not given here.
# Test system: P388 leukemia
# Assay: Protective activity against P388 leukemia growth in 5-FU immunosuppressed mice
# Type: in vivo
# Conditions: for Mean Survival days (days ± S.D.): CDF1 mice, 5-FU +, P388 +, 5-FU + saline 4.1; for survival days (in words): daily treatment in addition to 5-FU, 8 times before and 6 times after the transplant
# Experimental: The treatment with cytostatic agents often decreases immunocompetence and consequently increases incidence of metastasis of tumor in cancer patients. […] In the experiment shown in Table 10, male CDF1 mice (6 week old) were treated daily for 8 times with or without 5-FU (28 mg/kg/day ip.) and then transplanted subcutaneously with P388 leukemic cells (3×10^5) into footpad 24 hours later. When pretreated with 5-FU, mice died very quickly at 4 days, while normal mice survived about 23 days after the transplant. […] Thymosin α1 and compound A may improve the immunodefense system against metastatic tumor growth in cancer patients who are receiving immunosuppressive chemotherapy. In combination with thymosin α1 or compound A, more extensive cancer chemotherapy for a longer duration may be possible.
# ^(1) CDF1 mice were pretreated daily for 8 times from Day 8 to
# with 5FU (28 mg/kg/day, ip.).
# ^(2) Thymosin α1 or Compound A were administered daily for
# 14 times from Day 8 to 5 by ip. route.
# ^(3) P388 leukemic cells (3 × 10^5) were inoculated into
# ^(4) Survival days after the inoculation of the leukemic cells.
Substance,Mean Survival days (days ± S.D.) (0.4 μg/kg/day ip. 14 times) [days],Mean Survival days (days ± S.D.) (4 μg/kg/day ip. 14 times) [days],survival days (in words),Mean Survival days (days ± S.D.) (40 μg/kg/day ip. 14 times) [days]
"KKEVVE [Compound A, L-Lysyl-L-lysyl-L-glutamyl-L-valyl-L-valyl-L-glutamic acid]",22.3 ± 2.8,23.7 ± 2.9,increased the survival days to the level similar to that obtained in normal mice,–
"thymosin α1 (SDAAVDTSSEITTKDLKEKKEVVEEAEN; ends and bridges not checked; UniProt P01252 2-29, looked up) [peptide isolated from bovine thymus, stimulates maturation, differentiation and function of T cells; U.S. Pat. No. 4,079,127, reference compound]",–,17.6 ± 8.2,increased the survival days to the level similar to that obtained in normal mice,20.7 ± 2.8
